Measured values taken from ChEMBL document CHEMBL5120848, “Tapping into the antitubercular potential of 2,5-dimethylpyrroles: A structure-activity relationship interrogation” (Eur J Med Chem, 2022).
Converted amounts (≈) assume the structure as drawn. The source made the active and inactive calls. The calls are words filed in the database; no cut-off is given here.

What was measured:
[1] = Selectivity index, ratio of IC50 for cytotoxicity against human MRC5 cells to MIC90 for anti-tubercular activity against Mycobacterium tuberculosis H37Rv; assay type: toxicity, cell-based; conditions: read-out: Selectivity Index
[2] = Cytotoxicity against human MRC5 cells assessed as reduction in cell viability incubated for 24 hrs by resazurin-dye based analysis; assay type: toxicity
[3] = system: Mycobacterium tuberculosis; assay: Anti-tubercular activity against Mycobacterium tuberculosis H37Rv assessed as inhibition of mycobacterial growth incubated for 7 days by resazurin-dye based analysis; assay type: functional; conditions: 168 h, time 7 day
[4] = Selectivity index, ratio of IC50 for cytotoxicity against mouse J774.A1 cells to MIC90 for anti-tubercular activity against Mycobacterium tuberculosis H37Rv; assay type: toxicity, cell-based; conditions: read-out: Selectivity Index
[5] = Cytotoxicity against mouse J774.A1 cells assessed as reduction in cell viability incubated for 24 hrs by resazurin-dye based analysis; assay type: toxicity
[6] = system: Mycobacterium tuberculosis; assay: Anti-tubercular activity against Mycobacterium tuberculosis CF16 assessed as inhibition of mycobacterial growth incubated for 7 days by resazurin-dye based analysis; assay type: functional; conditions: CF16, 168 h, time 7 day
[7] = system: Mycobacterium tuberculosis; assay: Anti-tubercular activity against Mycobacterium tuberculosis CF61 assessed as inhibition of mycobacterial growth incubated for 7 days by resazurin-dye based analysis; assay type: functional; conditions: CF61, 168 h, time 7 day
[8] = system: Mycobacterium tuberculosis; assay: Anti-tubercular activity against Mycobacterium tuberculosis CF152 assessed as inhibition of mycobacterial growth incubated for 7 days by resazurin-dye based analysis; assay type: functional; conditions: CF152, 168 h, time 7 day
[9] = system: Mycobacterium tuberculosis; assay: Anti-tubercular activity against Mycobacterium tuberculosis CF161 assessed as inhibition of mycobacterial growth incubated for 7 days by resazurin-dye based analysis; assay type: functional; conditions: CF161, 168 h, time 7 day
[10] = system: Mycobacterium tuberculosis; assay: Bactericidal activity against Mycobacterium tuberculosis H37Rv assessed as log reduction of bacterial colonies at 1XMIC measured on day 12 by time-kill kinetics analysis (reference value: 7.54 log10CFU/ml); assay type: functional; conditions: time 12 day
[11] = system: Mycobacterium tuberculosis; assay: Anti-tubercular activity against Mycobacterium tuberculosis infected in mouse J774.A1 cells assessed as inhibition of intracellular bacilli growth incubated for 72 hrs; assay type: functional, organism-based
[12] = system: Mycobacterium tuberculosis; assay: Anti-tubercular activity against Mycobacterium tuberculosis CF76 assessed as inhibition of mycobacterial growth incubated for 7 days by resazurin-dye based analysis; assay type: functional; conditions: CF76, 168 h, time 7 day
[13] = system: Mycobacterium tuberculosis; assay: Bacteriostatic activity against Mycobacterium tuberculosis H37Rv at 1XMIC measured for 12 days by time-kill kinetics analysis; assay type: functional, organism-based; conditions: time 12.0 day

Cc1cc(CNCC2CCCCC2)c(C)n1Cc1ccc(Cl)cc1
selectivity ratio [1]: 7.71 | IC50 at 24 h [2]: 10.8 µg/mL (≈ 31.2 µM) | MIC90 [3]: 1.39 µg/mL (≈ 4.03 µM) | selectivity ratio [4]: 4.25 | IC50 at 24 h [5]: 5.92 µg/mL (≈ 17.2 µM)

Cc1cc(CNCC2CCCCC2)c(C)n1C(C)c1ccccc1 (centres undefined)
selectivity ratio [1]: 5.23 | MIC90 [6]: 8.7 µg/mL (≈ 26.8 µM) | IC50 at 24 h [2]: 23.4 µg/mL (≈ 72.2 µM) | MIC90 [7]: 10.2 µg/mL (≈ 31.3 µM) | MIC90 [8]: 4.32 µg/mL (≈ 13.3 µM) | MIC90 [3]: 4.48 µg/mL (≈ 13.8 µM) | MIC90 [9]: 9.94 µg/mL (≈ 30.6 µM) | selectivity ratio [4]: 13.5 | Activity [10]: 3.94 log10CFU/ml | Activity [11]: Active | IC50 at 24 h [5]: 60.6 µg/mL (≈ 187 µM) | MIC90 [12]: 9.13 µg/mL (≈ 28.1 µM)

Cc1cc(CNC2CCCCC2)c(C)n1-c1ccc(OCC(=O)O)cc1
MIC90 [3]: 16.4 µg/mL (≈ 45.9 µM)

Cc1cc(CNCc2ccccc2)c(C)n1C1CCCC1
MIC90 [3]: 13.4 µg/mL (≈ 47.6 µM)

Cc1cc(CNCC2CCCCC2)c(C)n1-c1ccccc1
MIC90 [3]: 0.3 µg/mL (≈ 1.01 µM)

Cc1cc(CNCc2ccccc2)c(C)n1Cc1ccc(Cl)cc1
MIC90 [3]: 10.6 µg/mL (≈ 31.1 µM)

Cc1cc(CNCc2ccccc2)c(C)n1-c1ccccn1
MIC90 [3]: > 25 µg/mL

Cc1cc(CNCC2CCCCC2)c(C)n1Cc1ccccn1
MIC90 [3]: 23 µg/mL (≈ 73.9 µM)

CO[C@H]1/C=C/O[C@@]2(C)Oc3c(C)c(O)c4c(O)c(c(/C=N/N5CCN(C)CC5)c(O)c4c3C2=O)NC(=O)/C(C)=C\C=C\[C@H](C)[C@H](O)[C@@H](C)[C@@H](O)[C@@H](C)[C@H](OC(C)=O)[C@@H]1C [RIFAMPIN]
MIC90 [6]: 0.2 µg/mL (≈ 0.243 µM) | MIC90 [7]: > 25 µg/mL | MIC90 [8]: > 25 µg/mL | MIC90 [3]: 0.05 µg/mL (≈ 0.0608 µM) | MIC90 [9]: > 25 µg/mL | MIC90 [12]: > 25 µg/mL

Cc1cc(CNCC2CCCCC2)c(C)n1C1CCCCC1
selectivity ratio [1]: 15.3 | IC50 at 24 h [2]: 26.7 µg/mL (≈ 88.3 µM) | MIC90 [3]: 1.74 µg/mL (≈ 5.75 µM) | selectivity ratio [4]: 6.89 | IC50 at 24 h [5]: 12 µg/mL (≈ 39.6 µM)

CCOc1ccc(-n2c(C)cc(CNC3CCCCC3)c2C)cc1
selectivity ratio [1]: 3.87 | IC50 at 24 h [2]: 19.9 µg/mL (≈ 61 µM) | MIC90 [3]: 5.14 µg/mL (≈ 15.7 µM) | selectivity ratio [4]: 1.78 | IC50 at 24 h [5]: 9.17 µg/mL (≈ 28.1 µM)

Cc1cc(CNC2CCC(N)CC2)c(C)n1-c1ccc(Cl)cc1.Cl.Cl (centres undefined)
MIC90 [3]: > 25 µg/mL

Cc1cc(CNCCCCNC(=N)N)c(C)n1-c1ccc(Cl)cc1.Cl.Cl
MIC90 [3]: 14.2 µg/mL

Cc1ccc(-n2c(C)cc(CNCC3CCCCC3)c2C)cc1
selectivity ratio [1]: 3.19 | IC50 at 24 h [2]: 15.6 µg/mL (≈ 50.2 µM) | MIC90 [3]: 4.88 µg/mL (≈ 15.7 µM) | selectivity ratio [4]: 5.13 | IC50 at 24 h [5]: 25.1 µg/mL (≈ 80.7 µM)

Cc1cc(CNCc2ccccc2)c(C)n1CC1CCCCC1
selectivity ratio [1]: 2.78 | IC50 at 24 h [2]: 18.3 µg/mL (≈ 58.8 µM) | MIC90 [3]: 6.58 µg/mL (≈ 21.2 µM) | selectivity ratio [4]: 2.04 | IC50 at 24 h [5]: 13.4 µg/mL (≈ 43.3 µM)

Cc1cc(CNCc2ccccc2)c(C)n1-c1nc2ccccc2s1
MIC90 [3]: 11.2 µg/mL (≈ 32.1 µM)

Cc1cc(CNCC2CCCCC2)c(C)n1C1CCCC1
MIC90 [3]: 9.21 µg/mL (≈ 31.9 µM)

Cc1cc(CNCCCCCCCCNC(=N)N)c(C)n1-c1ccc(OCC(=O)N(C)C)cc1.Cl.Cl
selectivity ratio [1]: 4.04 | IC50 at 24 h [2]: 36 µg/mL | MIC90 [3]: 8.91 µg/mL | selectivity ratio [4]: 1.43 | IC50 at 24 h [5]: 12.8 µg/mL

Cc1cc(CNCC2CCCCC2)c(C)n1Cc1ccc(F)cc1
selectivity ratio [1]: 28.8 | MIC90 [6]: 7.69 µg/mL (≈ 23.4 µM) | IC50 at 24 h [2]: 21 µg/mL (≈ 63.9 µM) | MIC90 [7]: 9.38 µg/mL (≈ 28.6 µM) | MIC90 [8]: 7.53 µg/mL (≈ 22.9 µM) | Activity [13]: Active | MIC90 [3]: 0.73 µg/mL (≈ 2.22 µM) | MIC90 [9]: 7.31 µg/mL (≈ 22.3 µM) | selectivity ratio [4]: 13.6 | Activity [11]: Active | IC50 at 24 h [5]: 9.88 µg/mL (≈ 30.1 µM) | MIC90 [12]: 18.8 µg/mL (≈ 57.2 µM)

COc1c(N2C[C@@H]3CCCN[C@@H]3C2)c(F)cc2c(=O)c(C(=O)O)cn(C3CC3)c12 [MOXIFLOXACIN]
selectivity ratio [1]: 1430 | MIC90 [6]: 0.14 µg/mL (≈ 0.349 µM) | IC50 at 24 h [2]: > 100 µg/mL | MIC90 [7]: 0.27 µg/mL (≈ 0.673 µM) | MIC90 [8]: 0.57 µg/mL (≈ 1.42 µM) | MIC90 [3]: ≤ 0.07 µg/mL | MIC90 [9]: 0.17 µg/mL (≈ 0.423 µM) | selectivity ratio [4]: 209 | Activity [11]: Active | IC50 at 24 h [5]: 14.6 µg/mL (≈ 36.3 µM) | MIC90 [12]: 0.2 µg/mL (≈ 0.498 µM)

Cc1cc(CNC2CCCCC2)c(C)n1-c1ccc(C(=O)O)cc1
MIC90 [3]: > 25 µg/mL

Cc1ccc(-n2c(C)cc(CNCc3ccccc3)c2C)cc1
selectivity ratio [1]: 2.3 | MIC90 [6]: 7.51 µg/mL (≈ 24.7 µM) | IC50 at 24 h [2]: 13.7 µg/mL (≈ 45 µM) | MIC90 [7]: 9.16 µg/mL (≈ 30.1 µM) | MIC90 [8]: 6.35 µg/mL (≈ 20.9 µM) | MIC90 [3]: 5.58 µg/mL (≈ 18.3 µM) | MIC90 [9]: 6.12 µg/mL (≈ 20.1 µM) | selectivity ratio [4]: 15.8 | Activity [10]: 2.65 log10CFU/ml | IC50 at 24 h [5]: 94 µg/mL (≈ 309 µM) | MIC90 [12]: 8.18 µg/mL (≈ 26.9 µM)

Cc1cc(CNCC2CCCCC2)c(C)n1-c1nc2ccccc2s1
selectivity ratio [1]: 25.8 | MIC90 [6]: 20.1 µg/mL (≈ 56.9 µM) | IC50 at 24 h [2]: 10.3 µg/mL (≈ 29.2 µM) | MIC90 [7]: 23.5 µg/mL (≈ 66.5 µM) | MIC90 [8]: 10.9 µg/mL (≈ 30.9 µM) | Activity [13]: Active | MIC90 [3]: 0.4 µg/mL (≈ 1.13 µM) | MIC90 [9]: 13.6 µg/mL (≈ 38.5 µM) | selectivity ratio [4]: 21.2 | Activity [11]: Active | IC50 at 24 h [5]: 8.47 µg/mL (≈ 24 µM) | MIC90 [12]: 19.6 µg/mL (≈ 55.5 µM)

Cc1cc(CNNC(=O)c2ccncc2)c(C)n1-c1ccc(Cl)cc1
IC50 at 24 h [2]: 96.1 µg/mL (≈ 271 µM) | IC50 at 24 h [5]: 78.5 µg/mL (≈ 221 µM)

NCC[C@H](O)C(=O)N[C@@H]1C[C@H](N)[C@@H](O[C@H]2O[C@H](CN)[C@@H](O)[C@H](O)[C@H]2O)[C@H](O)[C@H]1O[C@H]1O[C@H](CO)[C@@H](O)[C@H](N)[C@H]1O [AMIKACIN]
MIC90 [6]: 0.22 µg/mL (≈ 0.376 µM) | MIC90 [7]: 0.91 µg/mL (≈ 1.55 µM) | MIC90 [8]: 0.19 µg/mL (≈ 0.324 µM) | MIC90 [3]: 0.25 µg/mL (≈ 0.427 µM) | MIC90 [9]: 0.24 µg/mL (≈ 0.41 µM) | MIC90 [12]: 0.25 µg/mL (≈ 0.427 µM)

Cc1cc(CNCC2CCCCC2)c(C)n1-c1ccccn1
MIC90 [3]: 16.3 µg/mL (≈ 54.7 µM)

Cc1cc(CNCCCCCCCCNC(=N)N)c(C)n1-c1ccc(OCC(=O)O)cc1.Cl.Cl
MIC90 [3]: 13.2 µg/mL

Cc1cc(CNC2CCC(NC(=N)N)CC2)c(C)n1-c1ccc(Cl)cc1.Cl.Cl (centres undefined)
MIC90 [3]: 10.4 µg/mL

NNC(=O)c1ccncc1 [ISONIAZID]
MIC90 [6]: > 25 µg/mL | MIC90 [7]: > 25 µg/mL | MIC90 [8]: > 25 µg/mL | MIC90 [3]: 0.11 µg/mL (≈ 0.802 µM) | MIC90 [9]: > 25 µg/mL | Activity [11]: Active | MIC90 [12]: > 25 µg/mL

Cc1cc(CNCc2ccccc2)c(C)n1C(C)c1ccccc1 (centres undefined)
selectivity ratio [1]: 4.2 | IC50 at 24 h [2]: 33.3 µg/mL (≈ 105 µM) | MIC90 [3]: 7.94 µg/mL (≈ 24.9 µM) | selectivity ratio [4]: 2.21 | IC50 at 24 h [5]: 17.6 µg/mL (≈ 55.1 µM)

Cc1cc(CNCc2ccccc2)c(C)n1Cc1ccc(F)cc1
selectivity ratio [1]: 2.32 | IC50 at 24 h [2]: 16.2 µg/mL (≈ 50.1 µM) | MIC90 [3]: 6.96 µg/mL (≈ 21.6 µM) | selectivity ratio [4]: 2.26 | IC50 at 24 h [5]: 15.7 µg/mL (≈ 48.7 µM)

Cc1cc(CNC2CCCCC2)c(C)n1-c1ccc(OCC(=O)N(C)C)cc1
MIC90 [3]: > 25 µg/mL
